According to patent US9833497B2, “Human originated EGF domain proteins and use of the same” (CHENGDU SOURCEBIO LIMITED-LIABILITY COMPANY, priority 2013, dated 2017):

Columns and labels:
Assay type in all cases: cell-based
Aeromonas hydrophila = assay: MIC against Gram-negative bacteria: Aeromonas hydrophila; settings: 10 h cultivation at 37° C.
How it was run: (§1)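 MIC, the lowest recombinant protein concentration giving no bacterial growth, found by two-fold serial dilution of human EGF-domain proteins in triplicate. Inoculum 5×10^5 CFU/mL in LB from cultures at McFarland 0.5; plates incubated at 37° C, 175 rpm shaking.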

Pseudomonas aeruginosa = assay: MIC against Gram-negative bacteria: Pseudomonas aeruginosa; settings: 10 h cultivation at 37° C.
How it was run: as §1

Proteus mirabilis = assay: MIC against Gram-negative bacteria: Proteus mirabilis; settings: 10 h cultivation at 37° C.
How it was run: as §1

E. coli BL21 = assay: MIC against Gram-negative bacteria: E. coli BL21; settings: 10 h cultivation at 37° C.
How it was run: as §1

Klebsiella pneumonia = assay: MIC against Gram-negative bacteria: Klebsiella pneumonia; settings: 10 h cultivation at 37° C.
How it was run: as §1

Citrobacter diversus = assay: MIC against Gram-negative bacteria: Citrobacter diversus; settings: 10 h cultivation at 37° C.
How it was run: as §1

Proteus vulgaris = assay: MIC against Gram-negative bacteria: Proteus vulgaris; settings: 10 h cultivation at 37° C.
How it was run: as §1

Enterobacter cloacae = assay: MIC against Gram-negative bacteria: Enterobacter cloacae; settings: 10 h cultivation at 37° C.
How it was run: as §1

E. coli DH5α = assay: Antibacterial activity: MIC and growth curve against E. coli DH5α in 96-well plate; settings: minimal inhibitory concentration against E. coli DH5α; 96-well plate, 5×10^5 CFU/mL, 37° C., judged after 8 h
How it was run: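 MIC taken as lowest protein level with no bacterial growth, tracked by A600 every 30 min during 37 °C, 175 rpm culture. Two-fold protein series 50-12.5 μg/mL final, triplicate wells, against 5×10^5 CFU/mL of LB-washed mid-log cells.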

Serratia marcescens = assay: MIC against Gram-negative bacteria: Serratia marcescens; settings: 10 h cultivation at 37° C.
How it was run: as §1

Moraxella catarrhalis = assay: MIC against Gram-negative bacteria: Moraxella catarrhalis; settings: 10 h cultivation at 37° C.
How it was run: as §1

[1] = 5×10^5 CFU/mL, two-fold serial dilution

PRT1483 (DIDECVTSSCEGHCVNTEGGFVCECGPGMQLSADRHSCQ; listed as Homo sapiens)
MIC against A. hydrophila (Aeromonas hydrophila; Aeromonas hydrophila, 5×10^5 CFU/mL): 25 µg/mL | MIC against P. aeruginosa (Pseudomonas aeruginosa; Pseudomonas aeruginosa, 5×10^5 CFU/mL): 50 µg/mL | MIC against P. mirabilis (Proteus mirabilis; Proteus mirabilis, 5×10^5 CFU/mL): 12.5 µg/mL | MIC against E. coli BL21 (E. coli BL21; E. coli BL21, 5×10^5 CFU/mL): 25 µg/mL | MIC against K. pneumonia (Klebsiella pneumonia; Klebsiella pneumonia, 5×10^5 CFU/mL): 25 µg/mL | MIC against C. diversus (Citrobacter diversus; Citrobacter diversus, 5×10^5 CFU/mL): 50 µg/mL | MIC against P. vulgaris (Proteus vulgaris; Proteus vulgaris, 5×10^5 CFU/mL): 25 µg/mL | MIC against E. cloacae (Enterobacter cloacae; Enterobacter cloacae, 5×10^5 CFU/mL): 12.5 µg/mL | MIC (E. coli DH5α): 12.5 µg/mL | MIC against S. marcescens (Serratia marcescens; Serratia marcescens, 5×10^5 CFU/mL): 25 µg/mL | MIC against M. catarrhalis (Moraxella catarrhalis; Moraxella catarrhalis, 5×10^5 CFU/mL): 25 µg/mL

PRT194 (CRSKCHGHGVCDSNRHCYCEEGWAPPDCT; listed as Homo sapiens)
MIC (μg/mL) A. hydrophila (Aeromonas hydrophila; A. hydrophila, 5×10^5 CFU/mL): 12.5 µg/mL | MIC (μg/mL) P. aeruginosa (Pseudomonas aeruginosa; P. aeruginosa, 5×10^5 CFU/mL): 12.5 µg/mL | MIC (μg/mL) P. mirabilis (Proteus mirabilis; P. mirabilis, 5×10^5 CFU/mL): 100 µg/mL | MIC (μg/mL) E. coli BL21 (E. coli BL21; E. coli BL21, 5×10^5 CFU/mL): 25 µg/mL | MIC (μg/mL) K. pneumonia (Klebsiella pneumonia; K. pneumonia, 5×10^5 CFU/mL): 25 µg/mL | MIC (μg/mL) C. diversus (Citrobacter diversus; C. diversus, 5×10^5 CFU/mL): 12.5 µg/mL | MIC (μg/mL) P. vulgaris (Proteus vulgaris; P. vulgaris, 5×10^5 CFU/mL): 25 µg/mL | MIC (μg/mL) E. cloacae (Enterobacter cloacae; E. cloacae, 5×10^5 CFU/mL): 12.5 µg/mL | MIC (E. coli DH5α): 12.5 µg/mL | MIC (μg/mL) S. marcescens (Serratia marcescens; S. marcescens, 5×10^5 CFU/mL): 12.5 µg/mL | MIC (μg/mL) M. catarrhalis (Moraxella catarrhalis; M. catarrhalis, 5×10^5 CFU/mL): 100 µg/mL

PRT945 (QLDECASNPCQHGATCSDFIGGYRCECVPGYQGVNCE; listed as Homo sapiens)
MIC (Aeromonas hydrophila; A. hydrophila): 50 µg/mL | MIC (Pseudomonas aeruginosa; P. aeruginosa): 25 µg/mL | MIC (Proteus mirabilis; P. mirabilis): 50 µg/mL | MIC (E. coli BL21; E. coli BL21): 50 µg/mL | MIC (Klebsiella pneumonia; K. pneumonia): 12.5 µg/mL | MIC (Citrobacter diversus; C. diversus): 12.5 µg/mL | MIC (Proteus vulgaris; P. vulgaris): 12.5 µg/mL | MIC (Enterobacter cloacae; E. cloacae): 25 µg/mL | MIC (E. coli DH5α): 25 µg/mL | MIC (Serratia marcescens; S. marcescens): 25 µg/mL | MIC (Moraxella catarrhalis; M. catarrhalis): 25 µg/mL

PRT1189 (ECVPYPGCVHGSCVEPWQCNCETNWGGLLCD; listed as Homo sapiens)
MIC A. hydrophila (Aeromonas hydrophila; [1]): 25 µg/mL | MIC P. aeruginosa (Pseudomonas aeruginosa; [1]): 25 µg/mL | MIC P. mirabilis (Proteus mirabilis; [1]): 25 µg/mL | MIC E. coli BL21 (E. coli BL21; [1]): 12.5 µg/mL | MIC K. pneumonia (Klebsiella pneumonia; [1]): 50 µg/mL | MIC C. diversus (Citrobacter diversus; [1]): 50 µg/mL | MIC P. vulgaris (Proteus vulgaris; [1]): 50 µg/mL | MIC E. cloacae (Enterobacter cloacae; [1]): 12.5 µg/mL | MIC (E. coli DH5α): 50 µg/mL | MIC S. marcescens (Serratia marcescens; [1]): 12.5 µg/mL | MIC M. catarrhalis (Moraxella catarrhalis; [1]): 12.5 µg/mL

PRT855 (DVDECATGRASCPRFRQCVNTFGSYICKCHKGFDLMYIGGKYQCH; listed as Homo sapiens)
MIC (μg/mL) A. hydrophila (Aeromonas hydrophila; A. hydrophila, 5×10^5 CFU/mL): 50 µg/mL | MIC (μg/mL) P. aeruginosa (Pseudomonas aeruginosa; P. aeruginosa, 5×10^5 CFU/mL): 50 µg/mL | MIC (μg/mL) P. mirabilis (Proteus mirabilis; P. mirabilis, 5×10^5 CFU/mL): 12.5 µg/mL | MIC (μg/mL) E. coli BL21 (E. coli BL21; E. coli BL21, 5×10^5 CFU/mL): 12.5 µg/mL | MIC (μg/mL) K. pneumonia (Klebsiella pneumonia; K. pneumonia, 5×10^5 CFU/mL): 25 µg/mL | MIC (μg/mL) C. diversus (Citrobacter diversus; C. diversus, 5×10^5 CFU/mL): 12.5 µg/mL | MIC (μg/mL) P. vulgaris (Proteus vulgaris; P. vulgaris, 5×10^5 CFU/mL): 12.5 µg/mL | MIC (μg/mL) E. cloacae (Enterobacter cloacae; E. cloacae, 5×10^5 CFU/mL): 12.5 µg/mL | MIC (E. coli DH5α): 50 µg/mL | MIC (μg/mL) S. marcescens (Serratia marcescens; S. marcescens, 5×10^5 CFU/mL): 12.5 µg/mL | MIC (μg/mL) M. catarrhalis (Moraxella catarrhalis; M. catarrhalis, 5×10^5 CFU/mL): 12.5 µg/mL
